The record followed here is patent publication US20210300940A1 (Merck Patent GmbH, priority 2018, published 2021).

One test addresses T1, TLR8 (Homo sapiens, UniProt Q9NR97).
T1 construct: expressed in transfected cells; host or cells: HEK/293 reporter cells (NF-kB luciferase)
T1 sequence (Q9NR97 27-1041): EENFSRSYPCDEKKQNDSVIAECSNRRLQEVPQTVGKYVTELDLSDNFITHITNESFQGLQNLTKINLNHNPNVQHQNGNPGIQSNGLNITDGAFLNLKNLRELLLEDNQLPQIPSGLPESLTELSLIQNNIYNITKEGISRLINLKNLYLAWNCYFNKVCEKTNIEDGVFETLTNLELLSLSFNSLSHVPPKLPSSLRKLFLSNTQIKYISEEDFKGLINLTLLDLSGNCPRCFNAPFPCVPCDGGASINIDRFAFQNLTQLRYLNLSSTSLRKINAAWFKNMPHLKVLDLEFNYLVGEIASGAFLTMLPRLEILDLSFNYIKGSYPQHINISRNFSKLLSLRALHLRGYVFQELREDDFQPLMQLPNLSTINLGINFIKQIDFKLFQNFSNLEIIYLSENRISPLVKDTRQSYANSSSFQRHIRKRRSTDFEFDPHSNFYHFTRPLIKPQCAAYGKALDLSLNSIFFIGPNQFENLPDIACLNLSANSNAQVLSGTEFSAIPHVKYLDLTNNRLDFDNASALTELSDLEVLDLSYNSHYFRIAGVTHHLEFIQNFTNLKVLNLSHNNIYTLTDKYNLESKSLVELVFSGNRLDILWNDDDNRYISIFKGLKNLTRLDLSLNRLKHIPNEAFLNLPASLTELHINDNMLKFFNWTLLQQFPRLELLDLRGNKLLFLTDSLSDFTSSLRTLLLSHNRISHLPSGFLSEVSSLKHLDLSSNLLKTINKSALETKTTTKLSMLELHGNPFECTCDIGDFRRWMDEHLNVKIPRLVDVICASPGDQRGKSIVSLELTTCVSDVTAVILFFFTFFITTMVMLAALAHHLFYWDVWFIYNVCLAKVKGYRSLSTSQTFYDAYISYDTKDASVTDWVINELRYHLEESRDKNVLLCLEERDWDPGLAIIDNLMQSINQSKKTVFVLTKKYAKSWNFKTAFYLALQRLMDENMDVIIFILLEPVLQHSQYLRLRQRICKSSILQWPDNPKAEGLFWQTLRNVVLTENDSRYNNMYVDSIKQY
The test can be described thus: HEK/293 TLR8 Cell Assay. As to conditions: HEK cells, R848 agonist 30 uM final concentration, Steady-Glo readout; read-out: TLR8 potency. In kind it is cell-based.

The next test deals with T2, TLR7 (Homo sapiens, UniProt Q9NYK1).
T2 construct: expressed in transfected cells; host or cells: HEK/293 cells carrying TLR7 and an NF-kB luciferase reporter
T2 sequence (Q9NYK1 27-1049): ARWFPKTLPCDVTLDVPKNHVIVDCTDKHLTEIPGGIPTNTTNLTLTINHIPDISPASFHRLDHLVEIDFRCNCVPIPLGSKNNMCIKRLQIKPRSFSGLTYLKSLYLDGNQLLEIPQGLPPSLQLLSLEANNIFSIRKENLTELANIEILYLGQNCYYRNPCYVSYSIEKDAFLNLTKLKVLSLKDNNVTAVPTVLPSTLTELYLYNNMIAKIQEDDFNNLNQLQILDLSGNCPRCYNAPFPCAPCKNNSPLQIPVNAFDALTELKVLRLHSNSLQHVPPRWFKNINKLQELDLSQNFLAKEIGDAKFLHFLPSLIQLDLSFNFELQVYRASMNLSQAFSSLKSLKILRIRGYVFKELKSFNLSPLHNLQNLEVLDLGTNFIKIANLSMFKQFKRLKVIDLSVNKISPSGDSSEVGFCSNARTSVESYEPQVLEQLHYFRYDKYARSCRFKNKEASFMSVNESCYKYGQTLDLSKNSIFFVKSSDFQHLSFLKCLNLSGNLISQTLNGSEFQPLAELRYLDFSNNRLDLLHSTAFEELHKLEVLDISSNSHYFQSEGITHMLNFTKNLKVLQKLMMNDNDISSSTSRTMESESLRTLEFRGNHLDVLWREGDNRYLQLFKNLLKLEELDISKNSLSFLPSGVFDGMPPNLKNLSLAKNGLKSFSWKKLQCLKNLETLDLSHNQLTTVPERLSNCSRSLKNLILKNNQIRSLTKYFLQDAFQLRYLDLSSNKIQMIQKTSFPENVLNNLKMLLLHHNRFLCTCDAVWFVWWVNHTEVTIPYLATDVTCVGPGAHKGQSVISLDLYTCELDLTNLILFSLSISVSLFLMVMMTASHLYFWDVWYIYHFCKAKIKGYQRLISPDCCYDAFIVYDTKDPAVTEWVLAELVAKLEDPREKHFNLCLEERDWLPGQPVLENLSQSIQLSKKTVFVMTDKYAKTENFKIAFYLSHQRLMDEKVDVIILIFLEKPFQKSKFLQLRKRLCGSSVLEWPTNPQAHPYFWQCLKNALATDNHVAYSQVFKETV
The test can be described thus: HEK/293 TLR7 Cell Assay. In kind it is cell-based. As to conditions: TLR7/NFKb HEK cells, R848 agonist 10 uM final concentration, Steady-Glo readout; read-out: TLR7 potency. In outline:
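TLR7/NF-κB reporter HEK293 cells, 5000/well, cultured 24 h, then preincubated 30 min with compound before R848 agonist (10 uM final). After 5 h stimulation, Steady-Glo luciferase luminescence read.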

Where only a bound is given, the exact number is not on record here.

On to `C[C@@H]1CN(c2cnc(C#N)c3ncccc23)C[C@H](CNCC(O)CF)O1` (stereo partly drawn) [Example 373, 5-{(2S,6R)-2-[(3-Fluoro-2-hydroxy-propylamino)-methyl]-6-methyl-morpholin-4-yl}-[1,7]naphthyridine-8-carbonitrile], for which the IC50 at TLR8 and on TLR7 was above 0.15 µM each time.
Turning to `CN1CCC(O)(CC(=O)N[C@@H]2C[C@H](C(F)(F)F)CN(c3ccc(C#N)c4ncccc34)C2)CC1` [Example 73, N-[(3R,5S)-1-(8-cyanoquinolin-5-yl)-5-(trifluoromethyl)piperidin-3-yl]-2-(4-hydroxy-1-methylpiperidin-4-yl)acetamide], the IC50 at TLR8 is above 0.15 µM; on TLR7, 0.075 to 0.15 µM.
The matching figures for `C[C@H]1C[C@@H](NC(=O)CC2(F)CCN(C)CC2)CN(c2ccc(C(F)(F)F)c3ncccc23)C1` [Example 83, 2-(4-fluoro-1-methylpiperidin-4-yl)-N-[(3R,5S)-5-methyl-1-[8-(trifluoromethyl)quinolin-5-yl]piperidin-3-yl]acetamide]: below 0.075 µM and below 0.075 µM.
The matching figures for `CN1CCN(CC(=O)N[C@@H]2C[C@H](C(F)(F)F)CN(c3ccc(C#N)c4ncccc34)C2)CC1` [Example 82, N-((3R,5S)-1-(8-cyanoquinolin-5-yl)-5-(trifluoromethyl)piperidin-3-yl)-2-(4-methylpiperazin-1-yl)acetamide]: below 0.075 µM and 0.075 to 0.15 µM.
The matching figures for `C[C@@H]1CN(c2ccc(C#N)c3nccnc23)C[C@H](C(=O)NCC2(F)CNC2)O1` [Example 293, (2R,6R)-4-(8-Cyano-quinoxalin-5-yl)-6-methyl-morpholine-2-carboxylic acid (3-fluoro-azetidin-3-ylmethyl)-amide]: below 0.075 µM and below 0.075 µM.
With `C[C@H]1C[C@@H](NCC2(O)CCOCC2)CN(c2cnc(C(F)(F)F)c3ncccc23)C1` [Example 11, 4-{[(3R,5S)-5-Methyl-1-(8-trifluoromethyl-[1,7]naphthyridin-5-yl)-piperidin-3-ylamino]-methyl}-tetrahydro-pyran-4-ol], the IC50 on TLR8 and on TLR7 was above 0.15 µM in each case.
Consider `N#Cc1ccc(N2C[C@H](NC(=O)C3CCCNC3)C[C@H](C(F)(F)F)C2)c2cccnc12` (stereo partly drawn) [Example 185, Piperidine-3-carboxylic acid [(3R,5S)-1-(8-cyano-quinolin-5-yl)-5-trifluoromethyl-piperidin-3-yl]-amide], for which the figures for the IC50 at TLR8 and on TLR7 were 0.075 to 0.15 µM and above 0.15 µM, respectively.
The corresponding values for `CCN(C)CCNC(=O)[C@H]1CN(c2cnc(C#N)c3ncccc23)C[C@@H](C)O1` [Example 270, (2R,6R)-4-(8-Cyano-[1,7]naphthyridin-5-yl)-6-methyl-morpholine-2-carboxylic acid [2-(ethyl-methyl-amino)-ethyl]-amide] are below 0.075 µM and below 0.075 µM.
The matching figures for `N#Cc1ncc(N2C[C@@H](C(F)(F)F)O[C@@H](C(=O)NCC3(F)CCNCC3)C2)c2cccnc12` (single isomer, unassigned) [Example 317]: 0.075 to 0.15 µM and below 0.075 µM.
In the case of `C[C@H]1C[C@@H](NC(=O)C[C@H]2CCNC[C@H]2F)CN(c2ccc(C#N)c3ncncc23)C1` [Example 132, N-[(3R,5S)-1-(8-cyanoquinazolin-5-yl)-5-methylpiperidin-3-yl]-2-[(3S,4R)-3-fluoropiperidin-4-yl]acetamide], the IC50 is 0.075 to 0.15 µM at TLR8 and below 0.075 µM at TLR7.
The matching figures for `N#Cc1ccc(N2C[C@@H](C(=O)NC[C@]3(F)CCNC3)O[C@@H](C(F)(F)F)C2)c2nccnc12` (single isomer, unassigned) [Example 310]: below 0.075 µM and below 0.075 µM.
For the compound `C[C@H]1C[C@@H](NC(=O)[C@H](O)C(C)(C)O)CN(c2ccc(C#N)c3nccnc23)C1` [Example 162, (R)—N-[(3R,5S)-1-(8-Cyano-quinoxalin-5-yl)-5-methyl-piperidin-3-yl]-2,3-dihydroxy-3-methyl-butyramide], the values for the IC50 at TLR8 and on TLR7 were above 0.15 µM and 0.075 to 0.15 µM, respectively.
The matching figures for `C[C@H]1C[C@@H](NC(=O)[C@@H](N)C(C)(C)O)CN(c2ccc(C(F)(F)F)c3ncccc23)C1` [Example 170, (S)-2-Amino-3-hydroxy-3-methyl-N-[(3R,5S)-5-methyl-1-(8-trifluoromethyl-quinolin-5-yl)-piperidin-3-yl]-butyramide]: below 0.075 µM and 0.075 to 0.15 µM.
The matching figures for `C[C@@H]1CN(c2ccc(C#N)c3nccnc23)C[C@H](C(=O)NCC2CCS(=O)(=O)C2)O1` (stereo partly drawn) [Example 257, (2R,6R)-4-(8-cyanoquinoxalin-5-yl)-N-[(1,1-dioxo-1λ^6-thiolan-3-yl)methyl]-6-methylmorpholine-2-carboxamide]: below 0.075 µM and below 0.075 µM.
Turning to `C[C@H]1C[C@@H](NC(=O)CN2CCN(C)CC2)CN(c2cnc(C#N)c3nccnc23)C1` [Example 188, N-[(3R,5S)-1-(5-Cyano-pyrido[3,4-b]pyrazin-8-yl)-5-methyl-piperidin-3-yl]-2-(4-methyl-piperazin-1-yl)-acetamide], the IC50 on TLR8 and on TLR7 was below 0.075 µM each time.
For `CCN(C)CCNC(=O)[C@H]1CN(c2ccc(C#N)c3nccnc23)C[C@@H](C)O1` [Example 244, (2R,6R)-4-(8-Cyano-quinoxalin-5-yl)-6-methyl-morpholine-2-carboxylic acid [2-(ethyl-methyl-amino)-ethyl]-amide], the IC50 on TLR8 and on TLR7 was below 0.075 µM each time.
Turning to `CONC(=O)CCCN[C@@H]1C[C@H](C)CN(c2ccc(C(F)(F)F)c3nccnc23)C1` [Example 52, N-Methoxy-4-[(3R,5S)-5-methyl-1-(8-trifluoromethyl-quinoxalin-5-yl)-piperidin-3-ylamino]-butyramide], the IC50 at TLR8 and at TLR7 was below 0.075 µM throughout.
Consider `C[C@H](O)CNC(=O)[C@H]1CN(c2ccc(C#N)c3nccnc23)C[C@@H](C(F)(F)F)O1` (single isomer, unassigned) [Example 286], for which the IC50 on TLR8 and on TLR7 was above 0.15 µM in each case.
Take `C[C@H]1C[C@@H](NC(=O)CC2CCN(C(=O)NC(C)(C)CO)CC2F)CN(c2cnc(C#N)c3ncccc23)C1` (stereo partly drawn) [Example 149, 4-{[(3R,5S)-1-(8-Cyano-[1,7]naphthyridin-5-yl)-5-methyl-piperidin-3-ylcarbamoyl]-methyl}-3-fluoro-piperidine-1-carboxylic acid (2-hydroxy-1,1-dimethyl-ethyl)-amide]: the IC50 at TLR8 is 0.075 to 0.15 µM; at TLR7 it was above 0.15 µM.
